For 18 compounds, microsomal CLint results are on record in ChEMBL document CHEMBL1914419, “Discovery of aryloxy tetramethylcyclobutanes as novel androgen receptor antagonists” (J Med Chem, 2011).

A short description of the data set: Intrinsic clearance in human liver microsomes. In kind it is ADME, Microsome.
For orientation: microsomal CLint means a measure of how fast metabolising enzymes remove a compound, apart from limits set by blood flow. The low end stands for slow turnover, the high end for rapid turnover. Regarding `Cc1cc(C(=O)N[C@H]2C(C)(C)[C@H](Oc3ccc(C#N)c(Cl)c3)C2(C)C)nn1C`, the microsomal CLint is 40 µL/min/mg. Under `CC(=O)N[C@H]1C(C)(C)[C@H](Oc2ccc(C#N)c(C#N)c2)C1(C)C` stands less than 7 µL/min/mg; under `CC(=O)N[C@H]1C(C)(C)[C@H](Oc2ccc(C#N)c(Cl)c2)C1(C)C`, less than 8 µL/min/mg.

`CC(=O)N[C@H]1C(C)(C)[C@H](Oc2ccc(C#N)c(C)c2)C1(C)C` came in with a microsomal CLint of less than 7 µL/min/mg. Under `CC(=O)N[C@H]1C(C)(C)[C@H](Oc2ccc(C#N)c(C(F)(F)F)c2)C1(C)C` stands 11 µL/min/mg; under `CC(=O)N[C@H]1C(C)(C)[C@H](Oc2ccc(C#N)cc2Cl)C1(C)C`, 17.5 µL/min/mg. On to `CC1(C)[C@H](NC(=O)c2cnccn2)C(C)(C)[C@H]1Oc1ccc(C#N)c(Cl)c1`, for which the microsomal CLint turned out to be 9.8 µL/min/mg.

The compound `CC1(C)[C@H](NC(=O)c2cn[nH]c2)C(C)(C)[C@H]1Oc1ccc(C#N)c(Cl)c1` displayed a microsomal CLint of less than 8 µL/min/mg.

`Cn1cc(C(=O)N[C@H]2C(C)(C)[C@H](Oc3ccc(C#N)c(Cl)c3)C2(C)C)cn1`: the microsomal CLint was determined as 9 µL/min/mg.

`Cc1nnc(C(=O)N[C@H]2C(C)(C)[C@H](Oc3ccc(C#N)c(Cl)c3)C2(C)C)o1` displayed a microsomal CLint of 29 µL/min/mg. This microsomal CLint is about 3.2-fold higher than that of the compound before. `CC1(C)[C@H](NC(=O)c2cnc3ncccn23)C(C)(C)[C@H]1Oc1ccc(C#N)c(Cl)c1` yielded an intrinsic metabolic clearance (microsomal CLint) of less than 10 µL/min/mg.

`Cc1nc2ncccn2c1C(=O)N[C@H]1C(C)(C)[C@H](Oc2ccc(C#N)c(Cl)c2)C1(C)C`: the microsomal CLint came out at 19 µL/min/mg. Under `COCCn1ccc(C(=O)N[C@H]2C(C)(C)[C@H](Oc3ccc(C#N)c(Cl)c3)C2(C)C)n1` stands 57 µL/min/mg; under `CC1(C)[C@H](NC(=O)c2ccn(CCO)n2)C(C)(C)[C@H]1Oc1ccc(C#N)c(Cl)c1`, less than 12 µL/min/mg. `CC1(C)[C@H](NC(=O)c2cnn(CCO)c2)C(C)(C)[C@H]1Oc1ccc(C#N)c(Cl)c1`: the microsomal CLint was found to be 11 µL/min/mg. Under `CC1(C)[C@H](NC(=O)c2ccn(CCC#N)n2)C(C)(C)[C@H]1Oc1ccc(C#N)c(Cl)c1` stands 25 µL/min/mg; under `CN(C)C(=O)Cn1ccc(C(=O)N[C@H]2C(C)(C)[C@H](Oc3ccc(C#N)c(Cl)c3)C2(C)C)n1`, 15 µL/min/mg. For `Cc1nc(O[C@H]2C(C)(C)[C@H](NC(=O)c3cnc4ncccn34)C2(C)C)ccc1C#N`, the microsomal CLint was less than 8 µL/min/mg.
